Laboratory results: patent publication US20230148600A1, “PESTICIDALLY ACTIVE THIOPHENE DERIVATIVES” (SYNGENTA PARTICIPATIONS AG, priority 2017, published 2023)

What was measured:
Assay type in all cases: in vivo
[1] = tested on: Euschistus Heros (Neotropical BROWN Stink Bug); assay: Euschistus heros (neotropical brown stink bug) feeding/contact activity; conditions: 120 h, application rate 200 ppm, soybean leaves sprayed, N2 nymphs, assessed 5 days after infestation
Experimental: Euschistus Heros (Neotropical BROWN Stink Bug) Feeding/Contact Activity
Soybean leaves on agar in 24-well microtiter plates were sprayed with aqueous test solutions prepared from 10 ′000 ppm DMSO stock solutions. After drying the leaves were infested with N2 nymphs. The samples were assessed for mortality 5 days after infestation.

[2] = tested on: Myzus Persicae (Green Peach Aphid); assay: Myzus persicae (green peach aphid) feeding/contact activity; conditions: foliar, 144 h, application rate 200 ppm, sunflower leaf discs sprayed, aphid population of mixed ages, assessed 6 days after infestation
Experimental: Myzus Persicae (Green Peach Aphid) Feeding/Contact Activity
Sunflower leaf discs were placed onto agar in a 24-well microtiter plate and sprayed with aqueous test solutions prepared from 10 ′000 ppm DMSO stock solutions. After drying, the leaf discs were infested with an aphid population of mixed ages. The samples were assessed for mortality 6 days after infestation.

[3] = tested on: Plutella Xylostella (Diamond Back Moth); assay: Plutella xylostella (diamond back moth) feeding/contact activity; conditions: 120 h, application rate 200 ppm, artificial diet treated by pipetting, L2 larvae, assessed 5 days after infestation
Experimental: Plutella Xylostella (Diamond Back Moth) Feeding/Contact Activity
24-well microtiter plates with artificial diet were treated with aqueous test solutions prepared from 10 ′000 ppm DMSO stock solutions by pipetting. After drying, the plates were infested with L2 larvae (10 to 15 per well). The samples were assessed for mortality 5 days after infestation.

[4] = tested on: Spodoptera Littoralis (Egyptian Cotton Leaf Worm); assay: Spodoptera littoralis (Egyptian cotton leaf worm) feeding/contact activity; conditions: foliar, 72 h, application rate 200 ppm, cotton leaf discs sprayed, L1 larvae, assessed 3 days after infestation
Experimental: Spodoptera Littoralis (Egyptian Cotton Leaf Worm) Feeding/Contact Activity
Cotton leaf discs were placed onto agar in 24-well microtiter plates and sprayed with aqueous test solutions prepared from 10 ′000 ppm DMSO stock solutions. After drying the leaf discs were infested with five L1 larvae. The samples were assessed for mortality 3 days after infestation.

[5] = tested on: Tetranychus Urticae (Two-Spotted Spider Mite); assay: Tetranychus urticae (two-spotted spider mite) feeding/contact activity; conditions: foliar, 192 h, application rate 200 ppm, bean leaf discs sprayed, mite population of mixed ages, assessed 8 days after infestation, read-out: mortality on mixed population (mobile stages)
Experimental: Tetranychus Urticae (Two-Spotted Spider Mite) Feeding/Contact Activity
Bean leaf discs on agar in 24-well microtiter plates were sprayed with aqueous test solutions prepared from 10 ′000 ppm DMSO stock solutions. After drying the leaf discs were infested with a mite population of mixed ages. The samples were assessed for mortality on mixed population (mobile stages) 8 days after infestation.

[6] = tested on: Diabrotica Balteata (Corn Root Worm); assay: Diabrotica balteata (corn root worm) mortality on sprayed maize sprouts; conditions: 96 h, application rate 200 ppm, L2 larvae, assessed 4 days after infestation
Experimental: Diabrotica Balteata (Corn Root Worm)
Maize sprouts placed onto an agar layer in 24-well microtiter plates were treated with aqueous test solutions prepared from 10 ′000 ppm DMSO stock solutions by spraying. After drying, the plates were infested with L2 larvae (6 to 10 per well). The samples were assessed for mortality 4 days after infestation.

[7] = tested on: Thrips Tabaci (Onion Thrips); assay: Thrips tabaci (onion thrips) feeding/contact activity; conditions: foliar, 144 h, application rate 200 ppm, sunflower leaf discs sprayed, thrips population of mixed ages, assessed 6 days after infestation
Experimental: Thrips Tabaci (Onion Thrips) Feeding/Contact Activity
Sunflower leaf discs were placed on agar in 24-well microtiter plates and sprayed with aqueous test solutions prepared from 10 ′000 ppm DMSO stock solutions. After drying the leaf discs were infested with a thrips population of mixed ages. The samples were assessed for mortality 6 days after infestation.

Measured: mortality at 200 ppm

Cc1cc(C(F)(C(F)(F)F)C(F)(F)F)cc(C)c1-n1cc(-c2cc(C(=O)NC3CC3)c(C#N)s2)cn1 [Example 5, 2-cyano-N-cyclopropyl-5-[1-[2,6-dimethyl-4-[1,2,2,2-tetrafluoro-1-(trifluoromethyl)ethyl]phenyl]pyrazol-4-yl]thiophene-3-carboxamide]
not listed: [6] | [7]
≥ 80%: all other assays above

Cc1cc(C(F)(C(F)(F)F)C(F)(F)F)cc(C)c1-n1cc(-c2cc(C(=O)NC3(C#N)CC3)c(Cl)s2)cn1 [Example 10, 2-chloro-N-(1-cyanocyclopropyl)-5-[1-[2,6-dimethyl-4-[1,2,2,2-tetrafluoro-1-(trifluoromethyl)ethyl]phenyl]pyrazol-4-yl]thiophene-3-carboxamide]
not listed: [2]
≥ 80%: all other assays above

CCN(C(=O)c1cc(-c2cn(-c3c(Cl)cc(C(F)(C(F)(F)F)C(F)(F)F)cc3Cl)nn2)sc1C#N)C1CC1 [Example 11, 2-cyano-N-cyclopropyl-5-[1-[2,6-dichloro-4-[1,2,2,2-tetrafluoro-1-(trifluoromethyl)ethyl]phenyl]triazol-4-yl]-N-ethyl-thiophene-3-carboxamide]
not listed: [1] | [2]
≥ 80%: all other assays above

N#CC1(NC(=O)c2cc(-c3cn(-c4c(Cl)cc(C(F)(C(F)(F)F)C(F)(F)F)cc4Cl)nn3)sc2Cl)CC1 [Example 16, 2-chloro-N-(1-cyanocyclopropyl)-5-[1-[2,6-dichloro-4-[1,2,2,2-tetrafluoro-1-(trifluoromethyl)ethyl]phenyl]triazol-4-yl]thiophene-3-carboxamide]
≥ 80%: [4] | [7]

CN(C(=O)c1cc(-c2cn(-c3c(Cl)cc(C(F)(C(F)(F)F)C(F)(F)F)cc3Cl)nn2)sc1Cl)C1(C#N)CC1 [Example 15, 2-chloro-N-(1-cyanocyclopropyl)-5-[1-[2,6-dichloro-4-[1,2,2,2-tetrafluoro-1-(trifluoromethyl)ethyl]phenyl]triazol-4-yl]-N-methyl-thiophene-3-carboxamide]
≥ 80%: [6] | [3] | [4] | [7]

O=C(NC1CC1)c1cc(-c2cnn(-c3c(Cl)cc(C(F)(C(F)(F)F)C(F)(F)F)cc3Cl)c2)sc1Cl [Example 2, 2-chloro-N-cyclopropyl-5-[1-[2,6-dichloro-4-[1,2,2,2-tetrafluoro-1-(trifluoromethyl)ethyl]phenyl]pyrazol-4-yl]thiophene-3-carboxamide]
≥ 80%: all assays above

N#CC1(NC(=O)c2cc(-c3cnn(-c4c(Cl)cc(C(F)(C(F)(F)F)C(F)(F)F)cc4Br)c3)sc2Cl)CC1 [Example 7, 5-[1-[2-bromo-6-chloro-4-[1,2,2,2-tetrafluoro-1-(trifluoromethyl)ethyl]phenyl]pyrazol-4-yl]-2-chloro-N-(1-cyanocyclopropyl)thiophene-3-carboxamide]
≥ 80%: [1] | [3] | [4] | [5]

N#Cc1sc(-c2cnn(-c3c(Cl)cc(C(F)(C(F)(F)F)C(F)(F)F)cc3Cl)c2)cc1C(=O)NC1CC1 [Example 1, 2-cyano-N-cyclopropyl-5-[1-[2,6-dichloro-4-[1,2,2,2-tetrafluoro-1-(trifluoromethyl)ethyl]phenyl]pyrazol-4-yl]thiophene-3-carboxamide]
≥ 80%: all assays above

N#Cc1sc(-c2cnn(-c3ccc(C(F)(C(F)(F)F)C(F)(F)F)cc3Cl)c2)cc1C(=O)NC1CC1 [Example 8, 5-[1-[2-chloro-4-[1,2,2,2-tetrafluoro-1-(trifluoromethyl)ethyl]phenyl]pyrazol-4-yl]-2-cyano-N-cyclopropyl-thiophene-3-carboxamide]
not listed: [6] | [7]
≥ 80%: all other assays above

CN(C(=O)c1cc(-c2cn(-c3c(Cl)cc(C(F)(C(F)(F)F)C(F)(F)F)cc3Cl)nn2)sc1C#N)C1CC1 [Example 12, 2-cyano-N-cyclopropyl-5-[1-[2,6-dichloro-4-[1,2,2,2-tetrafluoro-1-(trifluoromethyl)ethyl]phenyl]triazol-4-yl]-N-methyl-thiophene-3-carboxamide]
not listed: [2]
≥ 80%: all other assays above

CCN(C(=O)c1cc(-c2cn(-c3c(Cl)cc(C(F)(C(F)(F)F)C(F)(F)F)cc3Cl)nn2)sc1Cl)C1(C#N)CC1 [Example 14, 2-chloro-N-(1-cyanocyclopropyl)-5-[1-[2,6-dichloro-4-[1,2,2,2-tetrafluoro-1-(trifluoromethyl)ethyl]phenyl]triazol-4-yl]-N-ethyl-thiophene-3-carboxamide]
≥ 80%: [6] | [3] | [4] | [7]

N#Cc1sc(-c2cnn(-c3c(Cl)cc(C(F)(C(F)(F)F)C(F)(F)F)cc3Cl)c2)cc1C(=O)NC1(C#N)CC1 [Example 3, 2-cyano-N-(1-cyanocyclopropyl)-5-[1-[2,6-dichloro-4-[1,2,2,2-tetrafluoro-1-(trifluoromethyl)ethyl]phenyl]pyrazol-4-yl]thiophene-3-carboxamide]
not listed: [2]
≥ 80%: all other assays above

N#Cc1sc(-c2cn(-c3c(Cl)cc(C(F)(C(F)(F)F)C(F)(F)F)cc3Cl)nn2)cc1C(=O)NC1CC1 [Example 13, 2-cyano-N-cyclopropyl-5-[1-[2,6-dichloro-4-[1,2,2,2-tetrafluoro-1-(trifluoromethyl)ethyl]phenyl]triazol-4-yl]thiophene-3-carboxamide]
≥ 80%: [6] | [3] | [4] | [7]

N#CC1(NC(=O)c2cc(-c3cnn(-c4ccc(C(F)(C(F)(F)F)C(F)(F)F)cc4Cl)c3)sc2Cl)CC1 [Example 6, 2-chloro-5-[1-[2-chloro-4-[1,2,2,2-tetrafluoro-1-(trifluoromethyl)ethyl]phenyl]pyrazol-4-yl]-N-(1-cyanocyclopropyl)thiophene-3-carboxamide]
≥ 80%: [1] | [3] | [4] | [5]
